Measured values from patent publication US8557530B2, “Use of a TAS2R7 nucleic acid sequence to identify modulators” (Givaudan SA, priority 2008, dated 2013).

Key:
[1] = system: HEK293T Gα16gustducin44 cells (that do not express TAS2R7); assay: Fluo-4 calcium assay, negative control HEK293T Gα16gustducin44 cells that do not express TAS2R7; type: cell-based, human; settings: cells without TAS2R7
[2] = system: more than 15 of the other human TAS2Rs; assay: Activation test on other human TAS2Rs; type: cell-based; settings: more than 15 other human TAS2Rs
human TAS2R7 [3] = biological target: T1, human TAS2R7 (Homo sapiens, UniProt Q9NYW3, L71P); assay: Fluo-4 calcium assay, HEK293T/Gα16-gustducin44 cell line stably expressing TAS2R7; type: cell-based; settings: stable cell line
T1 construct: RSS tag (first 45 amino acids of rat somatostatin receptor subtype 3, membrane export tag) (N); expressed in transfected cells
T1 sequence (Q9NYW3 with tags, fused parts or gaps L71P): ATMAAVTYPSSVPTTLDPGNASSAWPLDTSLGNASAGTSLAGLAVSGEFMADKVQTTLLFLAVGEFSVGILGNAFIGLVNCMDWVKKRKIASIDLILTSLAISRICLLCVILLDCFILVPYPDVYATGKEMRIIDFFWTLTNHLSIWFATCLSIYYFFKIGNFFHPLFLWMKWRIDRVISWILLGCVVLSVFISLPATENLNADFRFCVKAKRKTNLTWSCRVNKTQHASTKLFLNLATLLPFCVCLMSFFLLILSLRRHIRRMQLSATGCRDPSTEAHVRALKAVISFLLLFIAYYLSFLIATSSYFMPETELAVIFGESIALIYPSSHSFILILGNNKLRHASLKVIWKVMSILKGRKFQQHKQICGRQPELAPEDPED
Experimental: Cell lines that stably expresses TAS2R7 was generated by transfecting the pcDNA3.1Zeo-TAS2R7 construct into HEK293T/Gα16-gustducin 44 cells (formed as described in example 1). The host cell line HEK-293T is commercially available from the American Tissue Culture Collection (ATCC), ATCC®#CRL-11268.
TAS2R7 expressing cells were identified by their response to 2.6 mM L-menthol, which was determined via automated fluorimetric imaging on the FLIPR-TETRA™ (Molecular Devices, Sunnyvale, Calif., U.S.) as described in example 3. One clone was selected, resulting in the HEK293T/Gα16-gustducin 444/TAS2R7 cell line.
(§1) At day 0, the HEK293T cell line expressing Gα16-gustducin44 and a TAS2R7 bitter taste receptor formed as described in examples 2a or 2b was seeded in antibiotic-free growth medium (standard DMEM with 10% (v/v) heat-inactivated fetal bovine serum, 2 mM L-glutamine […]) into black wall/clear bottom 96-well plates, coated with poly(ethylenimine) (0.005% v/v) at a concentration of 15,000 cells per well and incubated for 48 hours in humidified atmosphere (37° C., 5% CO2).
(§2) At the time of the assay, the growth medium was discarded and the cells were in humidified atmosphere (37° C., 5% CO2) for 1 hour with […] of loading buffer consisting of 1.5 μM Fluo-4 AM and 2.5 mM probenecid (Sigma-Aldrich, St. Louis, Mo., U.S.) in DMEM.
(§3) Afterwards, the 96-well plate was washed 5 times with 100 μl of assay buffer (130 mM NaCl, 5 mM KCl, 10 mM HEPES, 2 mM CaCl2, and 5 mM dextrose, pH 7.4) per well, using an automated plate washer (BioTek). The plate was further incubated for 30 minutes at room temperature in the dark to allow for complete de-esterification of the Fluo-4. Afterwards the plate was washed 5 times with 100 μl of assay buffer per well, and reconstituted with 100 μl of assay buffer per well.
(§4) For assay reading the plate was placed in a Fluorometric Imaging Plate Reader (FLIPR) (FLIPR-TETRA™, Molecular Devices, Sunnyvale, Calif., US), and receptor activation was initiated by addition of 20 microliter of a tenfold concentrated agonist stock solution (to give the desired agonist end concentration when added to the 180 microliter assay buffer volume), which was prepared in assay buffer.
(§5) Fluorescence was continuously monitored for 20 seconds to give a signal baseline (averaged to give F0) prior to agonist addition and for 120 seconds after agonist addition. The change in signal divided by F0 gives ΔF/F0 indicated in the table, with ΔF being the maximum signal occurring within the 120 seconds minus the minimum signal (occurring within the 120 seconds after agonist addition).
All data was collected from at least two independent experiments each carried out in triplicate.
A concentration-response analysis was performed and EC50 values were calculated by nonlinear regression using the function f(x)=(a−d)/(1+(x/C)^nh)+d; with a=minimum signal, d=maximum signal, nh=hill coefficient, C=EC50, and x=agonist concentration. EC50 is the molar concentration of an agonist which produces 50% of the maximum possible effective response for that agonist.
(§6) The obtained calcium signals were corrected for the response of cells expressing only the G-Protein α subunit (Gα16-gustducin44) and normalized to the fluorescence of cells prior to the stimulus using ΔF/F0 (Fmax−Fmin/F0).
To confirm that the cell line formed in example 2b stably expresses the bitter taste receptor TAS2R7, a concentration-response curve for L-menthol was generated. […] The standard deviation (+/−STD) is also indicated.
Each sample (receptors as well as controls) contained a final concentration of 0.02% DMSO to allow for comparability of all examples below.

human TAS2R7 [4] = biological target: T1, human TAS2R7; assay: Fluo-4 calcium assay, HEK293T/Gα16-gustducin44 cells transiently expressing TAS2R7; type: cell-based; settings: for TAS2R7 ΔF/F0: transiently transfected cells
Experimental: On day 0, the HEK293T/Gα16-gustducin 44 cells were plated in 96-well black wall, clear-bottom plates at a density of 15,000 cells per well and grown overnight in growth media (DMEM with 10% (v/v) heat-inactivated fetal bovine serum, 2 mM L-glutamine, 100 units/ml penicillin, 100 μg/ml streptomycin).
On day 1, the media was changed to an antibiotic-free and serum-free DMEM. The cells were transfected with TAS2R7 using Lipofectamine 2000 (Invitrogen).
Per well of a 96-well plate, 150 ng of vector DNA (TAS2R7 expression vectors from example 1) was diluted in 12.5 μl of DMEM. In a second tube, 0.3 μl of Lipofectamine 2000 was diluted in 12.5 μl of DMEM and incubated for 5 min at room temperature. After the 5 min, both solutions were mixed and incubated for 20 min at RT. The growth medium in the plate was exchanged for 50 μl of DMEM and 25 μl of the lipofectamine/DNA mixture was incubated on the cells for 3-4 hours at 37° in a humidified atmosphere. This mixture was then replaced with an antibiotic-free, serum-containing DMEM.
24 hours post transfection, the cells were used in the Fluo-4 Calcium Assay as described in Example 3.
as §1, §2, §3, §4, §5, §6
The intracellular calcium response following the addition of L-menthol was determined in a HEK293T cell line stably expressing Gα16-gustducin44 and transiently expressing TAS2R7, formed as described in example 2a.

TAS2R7 = biological target: T2, TAS2R7 (Homo sapiens, UniProt Q9NYW3); settings: known from the art; cited from earlier work
T2 sequence (Q9NYW3 1-318): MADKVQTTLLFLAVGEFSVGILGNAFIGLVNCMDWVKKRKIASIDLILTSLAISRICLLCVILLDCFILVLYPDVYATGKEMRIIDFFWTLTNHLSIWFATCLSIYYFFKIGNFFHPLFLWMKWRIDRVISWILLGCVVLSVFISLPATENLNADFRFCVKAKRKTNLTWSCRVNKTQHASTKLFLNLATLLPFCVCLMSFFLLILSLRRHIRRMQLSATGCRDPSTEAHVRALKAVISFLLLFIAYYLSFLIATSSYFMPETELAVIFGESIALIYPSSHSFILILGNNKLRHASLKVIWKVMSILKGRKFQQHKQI

CC(C)[C@@H]1CC[C@@H](C)C[C@H]1O [L-menthol]
Neg. Control ΔF/F0 ([1]; L-menthol 0.01 mM): 0.09 | Neg. Control ΔF/F0 ([1]; L-menthol 0.02 mM): 0.08 | Neg. Control ΔF/F0 ([1]; L-menthol 0.04 mM): 0.08 | Neg. Control ΔF/F0 ([1]; L-menthol 0.08 mM): 0.10 | Neg. Control ΔF/F0 ([1]; L-menthol 0.16 mM): 0.15 | Neg. Control ΔF/F0 ([1]; L-menthol 0.33 mM): 0.34 | Neg. Control ΔF/F0 ([1]; L-menthol 0.65 mM): 0.41 | Neg. Control ΔF/F0 ([1]; L-menthol 1.30 mM): 0.53 | Neg. Control ΔF/F0 ([1]; L-menthol 2.60 mM): 0.65 | change above the background signal in negative control [1]: did not show a significant change above the background signal | activation of other human TAS2Rs [2]: not to be activated | TAS2R7 ΔF/F0 (human TAS2R7 [3]; L-menthol 0.01 mM): 0.09 | TAS2R7 ΔF/F0 (human TAS2R7 [3]; L-menthol 0.02 mM): 0.09 | TAS2R7 ΔF/F0 (human TAS2R7 [3]; L-menthol 0.04 mM): 0.13 | TAS2R7 ΔF/F0 (human TAS2R7 [3]; L-menthol 0.08 mM): 0.12 | TAS2R7 ΔF/F0 (human TAS2R7 [3]; L-menthol 0.16 mM): 0.23 | TAS2R7 ΔF/F0 (human TAS2R7 [3]; L-menthol 0.33 mM): 0.61 | TAS2R7 ΔF/F0 (human TAS2R7 [3]; L-menthol 0.65 mM): 1.03 | TAS2R7 ΔF/F0 (human TAS2R7 [3]; L-menthol 1.30 mM): 1.16 | TAS2R7 ΔF/F0 (human TAS2R7 [3]; L-menthol 2.60 mM): 0.92 | activation of TAS2R7 (human TAS2R7 [3]): activated | EC50 (human TAS2R7 [3]; nonlinear regression of concentration-response, read-out: calculated EC50 value for TAS2R7): 310 µM | TAS2R7 ΔF/F0 (human TAS2R7 [4]; L-menthol 0.01 mM): 0.09 | TAS2R7 ΔF/F0 (human TAS2R7 [4]; L-menthol 0.02 mM): 0.08 | TAS2R7 ΔF/F0 (human TAS2R7 [4]; L-menthol 0.04 mM): 0.08 | TAS2R7 ΔF/F0 (human TAS2R7 [4]; L-menthol 0.08 mM): 0.10 | TAS2R7 ΔF/F0 (human TAS2R7 [4]; L-menthol 0.16 mM): 0.15 | TAS2R7 ΔF/F0 (human TAS2R7 [4]; L-menthol 0.33 mM): 0.34 | TAS2R7 ΔF/F0 (human TAS2R7 [4]; L-menthol 0.65 mM): 0.41 | TAS2R7 ΔF/F0 (human TAS2R7 [4]; L-menthol 1.30 mM): 0.53 | TAS2R7 ΔF/F0 (human TAS2R7 [4]; L-menthol 2.60 mM): 0.65 | calcium signalling upon addition (human TAS2R7 [4]; cells transiently expressing human TAS2R7): significant concentration-dependent increase

C=C[C@H]1C[N@@]2CC[C@H]1C[C@H]2[C@H](O)c1ccnc2ccc(OC)cc12 [quinine]
response of TAS2R7 (TAS2R7): known to respond

CCN(CC)CCCC(C)Nc1ccnc2cc(Cl)ccc12 (centres unmarked) [chloroquine]
response of TAS2R7 (TAS2R7): known to respond

CC1CC[C@H](C(C)C)[C@@H](O)C1 (stereo partly drawn) [D-menthol]
activation of TAS2R7 (human TAS2R7 [4]; similar results as for L-menthol): shown to activate TAS2R7
